Patent publication US20180318325A1, “ANTIBODIES FOR TARGETING CANCER STEM CELLS AND TREATING AGGRESSIVE CANCERS” (GlycoMimetics, Inc., priority 2015, published 2018)

What was measured:
MM1S^HECA452 [1] = experiment: survival of SCID beige mice transplanted with MM1S^HECA452 cells; type: in vivo; conditions: MM1S^HECA452 engrafted female SCID beige mice; FIG. 4
Procedure: (§1) The significance of these in vitro findings were studied in vivo. Female SCID beige mice were injected i.v. with either MM1S^par or MM1S^HECA452 (5×10^5 cells, n=8/group) and followed for survival (see, e.g., FIG. 2). In separate cohorts, the effect of treatment with saline control, GMI-1271, bortezomib (BTZ) or a combination of both was determined in mice transplanted with either MM1S^par or MM1S^HECA452 cells.

E-selectin [2] = target: T1, E-selectin (Homo sapiens, UniProt P16581); experiment: rolling on E-selectin under shear stress; type: cell-based; conditions: both HECA-452 enriched and parental MM cell lines
T1 sequence (P16581 22-610): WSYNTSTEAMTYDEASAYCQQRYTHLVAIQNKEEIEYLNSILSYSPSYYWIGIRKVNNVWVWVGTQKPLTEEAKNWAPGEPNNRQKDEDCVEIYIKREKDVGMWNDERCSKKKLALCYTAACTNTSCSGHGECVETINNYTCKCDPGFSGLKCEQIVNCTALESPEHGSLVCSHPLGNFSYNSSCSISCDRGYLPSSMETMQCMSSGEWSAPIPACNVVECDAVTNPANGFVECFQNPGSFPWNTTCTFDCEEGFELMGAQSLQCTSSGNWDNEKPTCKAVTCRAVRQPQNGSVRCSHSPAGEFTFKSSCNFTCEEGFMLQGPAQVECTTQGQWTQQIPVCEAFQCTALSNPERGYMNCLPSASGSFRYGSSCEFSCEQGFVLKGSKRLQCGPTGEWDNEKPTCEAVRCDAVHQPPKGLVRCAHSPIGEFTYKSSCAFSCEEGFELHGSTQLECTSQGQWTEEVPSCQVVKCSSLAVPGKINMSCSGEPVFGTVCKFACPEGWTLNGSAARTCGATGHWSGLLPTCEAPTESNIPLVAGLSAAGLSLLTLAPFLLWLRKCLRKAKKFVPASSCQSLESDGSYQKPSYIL
From the text: (§2) The derived cell lines could be passaged in vitro and were stable for enriched E-selectin ligand expression identified by antibody HECA-452.

E-selectin [3] = target: T1, E-selectin; conditions: MM1S cells that bind to HECA-452; previously reported; cited from earlier work
MM cells = conditions: murine transplant models; Natoni et al., Blood, 2014; cited from earlier work
E-selectin [4] = target: T1, E-selectin; experiment: static adhesion assay on E-selectin; type: cell-based; conditions: GMI-1271 included during culture conditions; MM1S^HECA452 cells
From the text: as §2

MM1S^par = experiment: survival of SCID beige mice transplanted with MM1S^par cells; type: in vivo; conditions: MM1S^par engrafted female SCID beige mice; FIG. 3
Procedure: as §1

MM1S^HECA452 [5] = experiment: mobilization of human CD138+ MM cells into the bloodstream of mice with MM1S^HECA452 tumors; type: in vivo
Procedure: The number of human CD138+ MM cells was mobilized into the bloodstream in mice with MM1S^HECA452 tumors within 60 min following a single injection of GMI-1271 (see, e.g., FIG. 5) and persisted for at least 24 hours (2.37% v. 0.03%, p<0.001). This effect was consistent with GMI-1271 disrupting the tumor microenvironment and mobilizing MM1S^HECA-452 cells from the BM niche into the peripheral blood.

[6] = following a single injection of GMI-1271

| Compound | survival / anti-myeloma activity (MM1S^HECA452 [1]) | rolling on E-selectin (E-selectin [2]) | rolling of MM1S cells on E-selectin (E-selectin [3]) | effect on activity of bortezomib in vivo (MM cells) | adhesion of MM1S^HECA452 to E-selectin (E-selectin [4]) | survival (MM1S^par) | human CD138+ MM cells in the bloodstream (MM1S^HECA452 [5]; after a single injection of GMI-1271, 24 hours, v. 0.03%, p<0.001) | persistence of mobilization (MM1S^HECA452 [5]; [6]) | time to mobilization of CD138+ MM cells into the bloodstream (MM1S^HECA452 [5]; [6]) |
| --- | --- | --- | --- | --- | --- | --- | --- | --- | --- |
| CC(C)C[C@H](NC(=O)[C@H](Cc1ccccc1)NC(=O)c1cnccn1)B(O)O [BTZ, bortezomib] | marked resistance to BTZ treatment |  |  |  |  |  |  |  |  |
| CC[C@H]1C[C@@H](C(=O)NCCNC(=O)CCOCCOCCOCCOCCOCCOCCOCCOCCOCCOCCOCCOC)C[C@@H](O[C@@H]2O[C@H](CO)[C@H](O)[C@H](O[C@@H](CC3CCCCC3)C(=O)[O-])[C@H]2NC(C)=O)[C@@H]1O[C@@H]1O[C@@H](C)[C@@H](O)[C@@H](O)[C@@H]1O.[Na+] [GMI-1271] |  | profoundly inhibited rolling | blocked the rolling | enhance the activity of bortezomib | marked reduction in adhesion | no impact on survival | 2.37% | at least 24 hours | ≤ 60 min |
